Measurements from US20260285850A1, “SUBSTITUTED OXAZOLIDINONES AND IMIDAZOLINONES AS HERBICIDES” (FMC CORPORATION, priority 2023, published 2026).

Legend:
Format in all cases: in vivo
[1] = test system: barnyardgrass (Echinochloa crus-galli); assay: Test A preemergence soil spray, visual injury rating 0-100; conditions: 10 days, 0 = no effect, 100 = complete control
How it was run: (§1)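 Plants were grown in a loam soil-sand blend and treated with test chemical in a non-phytotoxic solvent mixture containing surfactant, either sprayed on soil preemergence or applied postemergence to 2-10 cm plants. After 10 days in a greenhouse, injury was scored visually against untreated controls, 0 meaning no effect and 100 complete control.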

[2] = test system: blackgrass (Alopecurus myosuroides); assay: as above; conditions: 10 days, 0 = no effect, 100 = complete control
How it was run: as §1

corn (Zea mays) [3] = assay: as above; conditions: 10 days, 0 = no effect, 100 = complete control
How it was run: as §1

[4] = test system: green foxtail (Setaria viridis); assay: as above; conditions: 10 days, 0 = no effect, 100 = complete control
How it was run: as §1

kochia (Bassia scoparia) [5] = assay: as above; conditions: 10 days, 0 = no effect, 100 = complete control
How it was run: as §1

[6] = test system: oat, wild (wild oat, Avena fatua); assay: as above; conditions: 10 days, 0 = no effect, 100 = complete control
How it was run: as §1

[7] = test system: palmer (palmer amaranth, palmer pigweed, Amaranthus palmeri); assay: as above; conditions: 10 days, 0 = no effect, 100 = complete control
How it was run: as §1

[8] = test system: ragweed (common ragweed, Ambrosia artemisiifolia); assay: as above; conditions: 10 days, 0 = no effect, 100 = complete control
How it was run: as §1

[9] = test system: ryegrass, Italian (italian ryegrass, Lolium multiflorum); assay: as above; conditions: 10 days, 0 = no effect, 100 = complete control
How it was run: as §1

soybean (Glycine max) [10] = assay: as above; conditions: 10 days, 0 = no effect, 100 = complete control
How it was run: as §1

[11] = test system: wheat (Triticum aestivum); assay: as above; conditions: 10 days, 0 = no effect, 100 = complete control
How it was run: as §1

[12] = test system: barnyardgrass (Echinochloa crus-galli); assay: Test A postemergence application, visual injury rating 0-100; conditions: 10 days
How it was run: as §1

[13] = test system: blackgrass (Alopecurus myosuroides); assay: as above; conditions: 10 days
How it was run: as §1

corn (Zea mays) [14] = assay: as above; conditions: 10 days
How it was run: as §1

[15] = test system: galium (catchweed bedstraw, Galium aparine); assay: as above; conditions: 10 days
How it was run: as §1

[16] = test system: green foxtail (Setaria viridis); assay: as above; conditions: 10 days
How it was run: as §1

[17] = test system: horseweed (Erigeron canadensis); assay: as above; conditions: 10 days
How it was run: as §1

kochia (Bassia scoparia) [18] = assay: as above; conditions: 10 days
How it was run: as §1

[19] = test system: oat, wild (wild oat, Avena fatua); assay: as above; conditions: 10 days
How it was run: as §1

[20] = test system: palmer (palmer amaranth, palmer pigweed, Amaranthus palmeri); assay: as above; conditions: 10 days
How it was run: as §1

[21] = test system: ragweed (common ragweed, Ambrosia artemisiifolia); assay: as above; conditions: 10 days
How it was run: as §1

[22] = test system: ryegrass, Italian (italian ryegrass, Lolium multiflorum); assay: as above; conditions: 10 days
How it was run: as §1

soybean (Glycine max) [23] = assay: as above; conditions: 10 days
How it was run: as §1

[24] = test system: wheat (Triticum aestivum); assay: as above; conditions: 10 days
How it was run: as §1

[25] = test system: barnyardgrass (Echinochloa crusgalli); assay: Test B flooded paddy test, visual plant response rating 0-100; conditions: 250 g ai/ha, Flood, applied to paddy water, evaluated after 13 days
How it was run: (§2)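 Greenhouse, 13 d. Seedlings at 2-leaf stage, pots flooded to 3 cm, compound delivered into floodwater, water level held constant. Evaluated visually relative to controls.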

[26] = test system: ducksalad (Heteranthera limosa); assay: as above; conditions: 250 g ai/ha, Flood, applied to paddy water, evaluated after 13 days
How it was run: as §2

rice (Oryza sativa) = assay: as above; conditions: 250 g ai/ha, Flood, applied to paddy water, evaluated after 13 days
How it was run: as §2

[27] = test system: sedge, umbrella (small-flower umbrella sedge, Cyperus difformis); assay: as above; conditions: 250 g ai/ha, Flood, applied to paddy water, evaluated after 13 days
How it was run: as §2

[28] = 31 g ai/ha, postemergence, 0 = no effect, 100 = complete control
[29] = Postemergence, 125 g ai/ha, 0 is no effect, 100 is complete control

## COC(=O)C1C=CC(NC(=O)C2(C)CN(c3cc(F)cc(Cl)c3)C(=O)O2)C1 (stereo not shown) [Compound 17]
[1]; 31 g ai/ha
  Barnyardgrass plant response rating (0-100): 80
[1]; 125 g ai/ha
  Barnyardgrass plant response rating (0 to 100 scale): 100
[2]; 31 g ai/ha
  Blackgrass plant response rating (0-100): 20
[2]; 125 g ai/ha
  Blackgrass plant response rating (0 to 100 scale): 70
Corn (Zea mays) [3]; 31 g ai/ha
  Corn plant response rating (0-100): 20
Corn (Zea mays) [3]; 125 g ai/ha
  Corn plant response rating (0 to 100 scale): 80
[4]; 31 g ai/ha
  Foxtail, Green plant response rating (0-100): 50
[4]; 125 g ai/ha
  Foxtail, Green plant response rating (0 to 100 scale): 100
Kochia (Bassia scoparia) [5]; 31 g ai/ha
  Kochia plant response rating (0-100): 50
Kochia (Bassia scoparia) [5]; 125 g ai/ha
  Kochia plant response rating (0 to 100 scale): 100
[6]; 31 g ai/ha
  Oat, Wild plant response rating (0-100): 10
[6]; 125 g ai/ha
  Oat, Wild plant response rating (0 to 100 scale): 80
[7]; 31 g ai/ha
  Amaranth, Palmer plant response rating (0-100): 70
[7]; 125 g ai/ha
  Amaranth, Palmer plant response rating (0 to 100 scale): 100
[8]; 31 g ai/ha
  Ragweed plant response rating (0-100): 20
[8]; 125 g ai/ha
  Ragweed plant response rating (0 to 100 scale): 40
[9]; 31 g ai/ha
  Ryegrass, Italian plant response rating (0-100): 90
[9]; 125 g ai/ha
  Ryegrass, Italian plant response rating (0 to 100 scale): 90
Soybean (Glycine max) [10]; 31 g ai/ha
  Soybean plant response rating (0-100): 0
Soybean (Glycine max) [10]; 125 g ai/ha
  Soybean plant response rating (0 to 100 scale): 80
[11]; 31 g ai/ha
  Wheat plant response rating (0-100): 80
[11]; 125 g ai/ha
  Wheat plant response rating (0 to 100 scale): 90
[12]; [28]
  Barnyardgrass plant response rating (0-100): 100
[12]; [29]
  Barnyardgrass plant response rating (0 to 100 scale): 100
[13]; [28]
  Blackgrass plant response rating (0-100): 60
[13]; [29]
  Blackgrass plant response rating (0 to 100 scale): 90
Corn (Zea mays) [14]; [28]
  Corn plant response rating (0-100): 70
Corn (Zea mays) [14]; [29]
  Corn plant response rating (0 to 100 scale): 100
[15]; [28]
  Galium plant response rating (0-100): 80
[15]; [29]
  Galium plant response rating (0 to 100 scale): 80
[16]; [28]
  Foxtail, Green plant response rating (0-100): 80
[16]; [29]
  Foxtail, Green plant response rating (0 to 100 scale): 90
[17]; [28]
  Horseweed plant response rating (0-100): 30
[17]; [29]
  Horseweed plant response rating (0 to 100 scale): 70
Kochia (Bassia scoparia) [18]; [28]
  Kochia plant response rating (0-100): 60
Kochia (Bassia scoparia) [18]; [29]
  Kochia plant response rating (0 to 100 scale): 70
[19]; [28]
  Oat, Wild plant response rating (0-100): 90
[19]; [29]
  Oat, Wild plant response rating (0 to 100 scale): 90
[20]; [28]
  Amaranth, Palmer plant response rating (0-100): 70
[20]; [29]
  Amaranth, Palmer / Pigweed, Palmer plant response rating (0 to 100 scale): 90
[21]; [28]
  Ragweed plant response rating (0-100): 30
[21]; [29]
  Ragweed plant response rating (0 to 100 scale): 80
[22]; [28]
  Ryegrass, Italian plant response rating (0-100): 90
[22]; [29]
  Ryegrass, Italian plant response rating (0 to 100 scale): 90
Soybean (Glycine max) [23]; [28]
  Soybean plant response rating (0-100): 50
Soybean (Glycine max) [23]; [29]
  Soybean plant response rating (0 to 100 scale): 90
[24]; [28]
  Wheat plant response rating (0-100): 90
[24]; [29]
  Wheat plant response rating (0 to 100 scale): 90
[25]
  Plant response rating, Barnyardgrass (0 to 100 scale, 0 is no effect and 100 is complete control): 70
[26]
  Plant response rating, Ducksalad (0 to 100 scale, 0 is no effect and 100 is complete control): 70
Rice (Oryza sativa)
  Plant response rating, Rice (0 to 100 scale, 0 is no effect and 100 is complete control): 10
[27]
  Plant response rating, Sedge, Umbrella (0 to 100 scale, 0 is no effect and 100 is complete control): 60
